Assay results as given in patent US4410525A, “Alkoxy pyrazole derivatives and compositions” (Establissements Nativelle S.A., priority 1981, dated 1983).
Read-outs that look alike come from different tables or passages of the source.

What was measured:
[1] = Acute toxicity (lethal dose 50) in the mouse; details: in vivo
From the text: The acute toxicity of the deriatives of the invention were studied by oral administration (P.O) to the mouse (10 animals, 5 males and 5 females per dose) and calculation of the lethal dose 50 (LD 50) in accordance with the method of Litchfield and Wilcoxon (J. Pharmacol., 96, 99-113 (1949)). Table 1 gives the LD 50 values of the derivatives of the invention.
In certain cases, the LD 50 was also studied after intraperitoneal injection (I.P.) of the derivatives.

[2] = system: isolated guinea pig auricle; test: Maximum stimulation frequency test on isolated guinea pig auricle; details: Cavia porcellus; 10 mg/l; read-out: Δ% MFS (decrease of the maximum frequency followed)
Experimental: The maximum frequency test carried out studied the maximum stimulation frequency which can cause contraction of an isolated guinea pig auricle placed in a solution containing a derivative of the invention. The measurement was carried out before (control period) and then after introduction of the derivative into the solution.

anesthetized dog = test: Hemodynamic effects on the anesthetized dog; format: in vivo; details: for (dp/dt)l/p, percentage of variation / Cardiac flow, percentage of variation / Cardiac frequency, percentage of variation / Contraction force of the myocardium, percentage of variation / Systolic arterial pressure, percentage of variation / Systolic volume, percentage of variation: Example 2 series, vs pretreatment
Experimental: Cardiovascular tolerance was studied on the isolated guinea pig auricle, on the anesthetized rat and on the anesthetized dog.
On the anesthetized dog, the results obtained with respect to hemodynamic tolerance are summarized in Table 2 below which indicates the percentages of variation of the hemodynamic parameters in relation to the pre-treatment control period for the derivatives of Examples 2 and 4.
The parameters were recorded by means of:
Catheters connected to pressure sensors (arterial pressure, left ventricular pressure and its first derivative dp/dt);
Electromagnetic flowmeter on the aorta (aortic flow);
Strain gauge placed on the left ventricular myocardium (force of myocardiac contraction).
The derivatives were injected intraveneously, one dose approximately every 30 minutes and their effects were measured 20 minutes after the completion of the injection (length of the injection 2 minutes).

[3] = system: ventricular arrhythmias induced by aconitine in the anesthetized rat; test: Antiarrhythmic test with aconitine on the rat; format: in vivo
Experimental: The derivatives of the invention were used in the test with aconitine on the rat. For this test, the anesthetized rat was intoxicated by an intravenous perfusion of aconitine (solution of aconitine nitrate: 15 mg/l; speed of perfusion: 0.4 ml/min) while its electrocardiogram was recorded permanently. During perfusion at constant speed, the time necessary for the appearance of ventricular arrhythmias, successively ventricular extrasystoles (ESV), ventricular tachycardium (TV) and ventricular fibrillation (FV) was measured.
The animals were divided into a control group (untreated) and treated group (different doses). The results are expressed as a percentage of prolonging the time of the appearance of the arrhythmias in the treated groups in relation to the control group. This prolongation of arrhythmia appearance time therefore corresponds to myocardiac protection against the arrhythmic effects of aconitine.

[4] = system: anoxic ventricular fibrillation in mice; test: Cardiac antifibrillatory activity on the mouse (Lawson test); format: in vivo; details: ip, intraperitoneal, 10 minutes before chloroform, read-out: ED 50 (protects half the mice against anoxic ventricular fibrillation)
Experimental: Cardiac antifibrillatory activity of the derivatives of the invention has been verified on the mouse using the Lawson test, in accordance with the method described by J. W. Lawson, J. Pharmacol. Exp. Therp. 160, 22-31 (1968), and C. Narcisse et al., Ann. Pharm. Fr. 37, 325-330 (1979).
The mice (20 per dose) received an intraperitoneal injection of the derivative 10 minutes before being placed in a chloroform saturated atmosphere. As soon as respiratory arrest occurred, the thorax was opened (5 to 10 seconds) and the state of the heart was checked: presence or absence of ventricular fibrillation. The efficacy dose 50 (ED 50) of the derivative being studied is the dose which protects half the mice against anoxic ventricular fibrillation.

rabbit cornea = test: Local contact anesthesia on the rabbit cornea; format: in vivo; details: solution at 0.25% or 1% by weight, eyewash instillation
From the text: For example, the derivatives described in Examples 2, 3, 4, 6, 7 and 9 are local anesthetics (100% anesthesia) in a solution at 0.25% or 1% by weight.

[5] = ip, intraperitoneal (I.P.), read-out: LD 50 I.P.
[6] = oral (P.O.), 5 males and 5 females per dose, read-out: LD 50 P.O.
[7] = anesthetized dog, i.v., cumulative dose
[8] = read-out: Prolongation of time of appearance of ventricular extrasystoles (ESV)
[9] = read-out: Prolongation of time of appearance of ventricular fibrillation (FV)
[10] = read-out: Prolongation of time of appearance of ventricular tachycardium (TV)

## CN(C)CCCOc1cc(-c2ccc(Cl)cc2)n[nH]1 [Example 1, 3-p-Chlorophenyl-5-dimethylaminopropoxy-pyrazole]
[1]; [5]
  LD50: 250 to 500 mg/kg
[1]; [6]
  LD50: 1000 mg/kg
[2]
  inhibition at 10 µg/mL: 30%

## Cc1c(-c2ccc(Cl)cc2)n[nH]c1OCCCN1CCCCC1 [Example 19]
[1]; [5]
  LD50: 62 to 125 mg/kg
[1]; [6]
  LD50: 250 mg/kg
Anesthetized dog; anesthetized dog, i.v.
  Cardiac frequency (result in words): does not change
  Systolic arterial pressure (result in words): drops moderately
  force of ventricular myocardiac contractions (result in words): decreases
Anesthetized dog; [7]
  cumulative dose at which a 20% drop of cardiac flow is reached: greater than 4 mg/kg
[2]
  inhibition at 10 µg/mL: 52%
[3]; [8]
  change in vivo at 10 mg/kg: 15%
[3]; [9]
  change in vivo at 10 mg/kg: 35%
[3]; [10]
  change in vivo at 10 mg/kg: 15%
[4]
  ED50: 21.5 mg/kg

## Clc1ccc(-c2cc(OCCCN3CCCCC3)[nH]n2)cc1 [Example 3, 3-p-Chlorphenyl-5-piperidinopropoxy-pyrazole]
[1]; [6]
  LD50: 700 mg/kg
[2]
  inhibition at 10 µg/mL: 53%
[3]; [8]
  change in vivo at 10 mg/kg: 6%
[3]; [9]
  change in vivo at 10 mg/kg: 46%
[3]; [10]
  change in vivo at 10 mg/kg: 28%
[4]
  ED50: 35 mg/kg
Rabbit cornea
  local anesthesia: 100%

## Cc1c(-c2ccccc2)n[nH]c1OCCN1CCCCC1 [Example 11]
[1]; [5]
  LD50: 184 mg/kg
[1]; [6]
  LD50: 250 to 500 mg/kg
[2]
  inhibition at 10 µg/mL: 52%
[3]; [8]
  change in vivo at 10 mg/kg: 10%
[3]; [9]
  change in vivo at 10 mg/kg: 18%
[3]; [10]
  change in vivo at 10 mg/kg: 11%
[4]
  ED50: 42.5 mg/kg

## Cc1c(-c2ccccc2)n[nH]c1OCCCN1CCCCC1 [Example 14]
[1]; [6]
  LD50: 250 mg/kg
Anesthetized dog; anesthetized dog, i.v.
  Cardiac frequency (result in words): drops moderately
  Systolic arterial pressure (result in words): drops moderately
  force of ventricular myocardiac contractions (result in words): does not vary significantly
[2]
  inhibition at 10 µg/mL: 40%
[4]
  ED50: 62 mg/kg

## Clc1ccc(-c2cc(OCCN3CCCCC3)[nH]n2)cc1 [Example 6]
[1]; [6]
  LD50: 500 mg/kg
[2]
  inhibition at 10 µg/mL: 46%
[3]; [8]
  change in vivo at 3 mg/kg: 13%
[3]; [9]
  change in vivo at 3 mg/kg: 18%
[3]; [10]
  change in vivo at 3 mg/kg: 21%
Rabbit cornea
  local anesthesia: 100%

## c1ccc(-c2cc(OCCCN3CCCCC3)[nH]n2)cc1 [Example 13]
[1]; [6]
  LD50: 125 to 250 mg/kg
[2]
  inhibition at 10 µg/mL: 44%

## Cc1c(-c2ccccc2)n[nH]c1OCCN1CCCC1 [Example 2, 3-Phenyl-4-methyl-5-pyrrolidinoethoxy-pyrazole]
[1]; [6]
  LD50: 500 mg/kg
Anesthetized dog; i.v., dose 0.5 mg/kg
  (dp/dt)l/p, percentage of variation: 0%
  Cardiac flow, percentage of variation: 0%
  Cardiac frequency, percentage of variation: 0%
  Contraction force of the myocardium, percentage of variation: 0%
  Systolic arterial pressure, percentage of variation: +4%
  Systolic volume, percentage of variation: 0%
Anesthetized dog; i.v., dose +1 mg/kg
  (dp/dt)l/p, percentage of variation: -7%
  Cardiac flow, percentage of variation: -5%
  Cardiac frequency, percentage of variation: -8%
  Contraction force of the myocardium, percentage of variation: 0%
  Systolic arterial pressure, percentage of variation: 0%
  Systolic volume, percentage of variation: +3%
Anesthetized dog; i.v., dose +3 mg/kg
  (dp/dt)l/p, percentage of variation: -30%
  Cardiac flow, percentage of variation: -5%
  Cardiac frequency, percentage of variation: -8%
  Contraction force of the myocardium, percentage of variation: -20%
  Systolic arterial pressure, percentage of variation: 0%
  Systolic volume, percentage of variation: +3%
Anesthetized dog; i.v., dose +5 mg/kg
  (dp/dt)l/p, percentage of variation: -30%
  Cardiac flow, percentage of variation: -20%
  Cardiac frequency, percentage of variation: -8%
  Contraction force of the myocardium, percentage of variation: -20%
  Systolic arterial pressure, percentage of variation: -8%
  Systolic volume, percentage of variation: -12%
Anesthetized dog; i.v., first dose of +10 mg/kg
  (dp/dt)l/p, percentage of variation: -38%
  Cardiac flow, percentage of variation: -37%
  Cardiac frequency, percentage of variation: -8%
  Contraction force of the myocardium, percentage of variation: -10%
  Systolic arterial pressure, percentage of variation: -12%
  Systolic volume, percentage of variation: -31%
Anesthetized dog; i.v., second dose of +10 mg/kg
  (dp/dt)l/p, percentage of variation: -46%
  Cardiac flow, percentage of variation: -45%
  Cardiac frequency, percentage of variation: -8%
  Contraction force of the myocardium, percentage of variation: -20%
  Systolic arterial pressure, percentage of variation: -20%
  Systolic volume, percentage of variation: -40%
Anesthetized dog; after injection of 4.5 mg/kg to 29 mg/kg
  maximum decrease of force of ventricular myocardiac contractions: -20%
Anesthetized dog; anesthetized dog, i.v.
  Cardiac frequency (result in words): drops moderately
  Systolic arterial pressure (result in words): drops moderately
  force of ventricular myocardiac contractions (result in words): decreases
Anesthetized dog; [7]
  cumulative dose after which the decrease of systolic arterial pressure appears: > 4.5 mg/kg
  cumulative dose at which a 20% drop of cardiac flow is reached: greater than 9 mg/kg
[2]
  inhibition at 10 µg/mL: 56%
[3]; [8]
  change in vivo at 10 mg/kg: 32%
[3]; [9]
  change in vivo at 10 mg/kg: 44%
[3]; [10]
  change in vivo at 10 mg/kg: 30%
Rabbit cornea
  local anesthesia: 100%

## Cc1c(-c2ccccc2)n[nH]c1OCCCN(C)C [Example 15]
[1]; [6]
  LD50: 500 to 1000 mg/kg
[2]
  inhibition at 10 µg/mL: 40%

## Cc1c(-c2ccc(Cl)cc2)n[nH]c1OCCCN(C)C [Example 17]
[1]; [5]
  LD50: 250 to 500 mg/kg
[1]; [6]
  LD50: 500 to 1000 mg/kg
[2]
  inhibition at 10 µg/mL: 32%

## CN(C)CCCOc1cc(-c2ccccc2)[nH]n1 [Example 8]
[1]; [6]
  LD50: 1000 mg/kg

## c1ccc(-c2cc(OCCN3CCCC3)[nH]n2)cc1 [Example 12]
[1]; [6]
  LD50: 500 to 1000 mg/kg
[2]
  inhibition at 10 µg/mL: 35%

## Cc1c(-c2ccc(Cl)cc2)n[nH]c1OCCN1CCOCC1 [Example 16]
[1]; [5]
  LD50: 125 to 250 mg/kg
[1]; [6]
  LD50: 500 to 1000 mg/kg
[2]
  inhibition at 10 µg/mL: 28%

## c1ccc(-c2cc(OCCN3CCOCC3)[nH]n2)cc1 [Example 5, 3-Phenyl-5-morpholinoethoxy-pyrazole]
[1]; [6]
  LD50: 1000 mg/kg
[2]
  inhibition at 10 µg/mL: 12%
[4]
  ED50: 79 mg/kg

## Cc1c(-c2ccc(Cl)cc2)n[nH]c1OCCN1CCCC1 [Example 18]
[1]; [6]
  LD50: 750 mg/kg
[2]
  inhibition at 10 µg/mL: 45%
[3]; [8]
  change in vivo at 10 mg/kg: 2%
[3]; [9]
  change in vivo at 10 mg/kg: 0%
[3]; [10]
  change in vivo at 10 mg/kg: 6%
